According to US8258256B2, “Compositions and methods for the treatment of cancer” (The Johns Hopkins University, priority 2006, dated 2012):
Bridge positions count the residues as written; N and C are the ends. Primed or numbered codes have the meaning given here. Ends that are not written are not given here. Peptide text beside a SMILES is read from it. I, II: the chains in the order shown. * marks the point of attachment. Biotin = O=C1N[C@H]2[C@H](CS[C@H]2CCCCC(=O)*)N1; FITC′ = fluorescein isothiocyanate label

Experiments:
His-PSMA [1] = molecular target: T1, His-PSMA (Homo sapiens, UniProt Q04609); assay: PSMA enzymatic assay (NAALADase activity, 3H-NAAG hydrolysis); type: biochemical; conditions: ratio of inhibitory potency, dimeric vs monomeric peptide
T1 construct: made in house; host or cells: Drosophila Schneider's S2 cells, vector pMT/BiP/V5-HisA (pMT-His-PSMA), purified from conditioned media on Ni-NTA
Description: FIG. 4 depicts the inhibition of NAALADase activity of PSMA by monomeric and dimeric peptides. His-PSMA hydrolysis of ^3H-NAAG was assayed as described in the methods in the absence or presence of indicated concentration of monomeric or dimeric peptide. After 15 min incubation at 37° C. amount of released 3H-Glu was determined. Percent inhibition is the ratio of amount of 3H-Glu released in presence of peptide compared to control (i.e. His-PSMA only). Data plotted are average of duplicate experiments and best fit line is included.
(§1) PSMA Enzymatic Assay The enzymatic activity assay for PSMA was adapted as previously described by Tiffany et al. (21). PSMA (5 nM) incubated with or without peptides was added to PSMA assay buffer (10 mM CoCl2, 50 mM Tris, pH 7.4). Following a 30 mins incubation at 37° C., N-acetyl-aspartyl-3H glutamate (3H-NAAG) (NEN, Boston, Mass.) was added to final concentration of 25 nM and reactions incubated for 15 mins at 37° C. Data were collected during linear phase of hydrolysis (i.e. less than 20% cleavage of total substrate).

His-PSMA [2] = molecular target: T1, His-PSMA; conditions: substrate hydrolysis by PSMA, reference (21); cited from earlier work
[3] = tested on: PSMA-positive (LNCaP, CWR22R) human prostate cancer cells; assay: Fluorescent peptide binding to PSMA-positive prostate cancer cells (confocal microscopy); type: cell-based
Description: FIG. 5 depicts dimeric […] (SEQ ID NO:1) peptide binds selectively to PSMA-producing prostate cancer cells. Attached PSMA-positive (LNCaP, CWR22R) and PSMA-negative (PC-3, DU145) human prostate cancer were prelabeled with Orange Cell Tracker (Invitrogen) at 2.5 μM in RPMI for 30 mins. After washing with Hanks balanced salt solution, cells were incubated with FITC-labeled monomeric (50 μM) or dimeric (5 μM) […] (SEQ ID NO:1) peptide in 1% fetal calf serum containing media for 1 hr. Cells were washed 3 times with PBS and fixed with 1% Formalin for ½ hr at room temperature. Cells were visualized using Zeiss Meta 510 confocal microscope at 20× magnification. Top panels show orange cell tracker labeled cells (rhodamine filter set); middle panels show labeled peptide binding (FITC filter set); bottom panel show overlay of both panels.
Binding of […] (SEQ ID NO:1) peptides to PSMA-expressing cell lines—To analyze peptide binding to membrane bound PSMA, fluorescently labeled peptides were synthesized by coupling FITC to the C-terminus of either the monomeric or dimeric peptide. […] In contrast, cell binding of the dimeric […] (SEQ ID NO:1) peptide could be easily visualized at concentrations as low as 5 μM, FIG. 5. Labeled, dimeric peptide bound to a similar degree to both CWR22R and LNCAP.

PSMA = molecular target: T2, PSMA (Homo sapiens, UniProt Q04609); assay: Soluble biotinylated peptide binding to immobilized PSMA or BSA; conditions: biotinylated peptide incubated with immobilized PSMA (0.625 μgs) or BSA
T2 construct: made in house; host or cells: Drosophila Schneider's S2 cells, vector pMT/BiP/V5-HisA (pMT-His-PSMA), purified from conditioned media on Ni-NTA
Description: FIGS. 3A-B depict (A) Soluble […] (Biotin) (SEQ ID NO: 37) peptide binding to BSA and PSMA. Recombinant PSMA (0.625 μgs) and BSA (25 μgs/ml) were immobilized and indicated concentrations of the biotinylated […] (SEQ ID NO:1) peptide were incubated with immobilized PSMA or BSA. […] (B) Comparison of PSMA binding to monomeric (SEQ ID NO: 37) and dimeric (core peptide disclosed as SEQ ID NO: 1) form of the […] (SEQ ID NO:1) peptide. Biotin labeled monomeric and dimeric peptide were immobilized on streptavidin-coated plates then incubated with His-PSMA (100 nM). Results are the mean binding in 4 replicate wells each ±S.D.
Soluble Synthetic […] (SEQ ID NO:1) peptide binds selectively to PSMA—On the basis of the phage binding results, the […] (SEQ ID NO:1) peptide was synthesized with biotin coupled to the C-terminus.

[4] = molecular target: T3, full length membrane bound form of PSMA (Homo sapiens, UniProt Q04609); assay: NAAG hydrolysis assay with cell lysates from PSMA-producing LNCaP; type: biochemical; conditions: peptide at 60 μM
T3 construct: endogenous in cells; host or cells: LNCaP cell lysate
Description: as §1
[…] (SEQ ID NO:1) peptide inhibits PSMA's enzyme activity—Functionally, PSMA has been classified as a glutamate carboxypeptidase II (25) with activity as both an N-acetylated α-linked acidic dipeptidase (NAALADase) (26) and as a pteroyl poly-γ-glutamyl carboxypeptidase (i.e. folate hydrolase) (27). […] Therefore, the monomeric and dimeric […] (SEQ ID NO:1) peptides were incubated initially with PSMA for 30 mins and then ^3H NAAG substrate was added to prevent any NAAG hydrolysis before the peptide is able to bind to PSMA. Control peptides included the […] (SEQ ID NO: 22) peptide and a short peptide HHWA (SEQ ID NO: 26) containing the apparent consensus motif from the phage display. […] In a second experiment, cell lysates from PSMA-producing LNCaP were used instead of purified recombinant His-PSMA.

T1 sequence (Q04609 44-750 limits assumed): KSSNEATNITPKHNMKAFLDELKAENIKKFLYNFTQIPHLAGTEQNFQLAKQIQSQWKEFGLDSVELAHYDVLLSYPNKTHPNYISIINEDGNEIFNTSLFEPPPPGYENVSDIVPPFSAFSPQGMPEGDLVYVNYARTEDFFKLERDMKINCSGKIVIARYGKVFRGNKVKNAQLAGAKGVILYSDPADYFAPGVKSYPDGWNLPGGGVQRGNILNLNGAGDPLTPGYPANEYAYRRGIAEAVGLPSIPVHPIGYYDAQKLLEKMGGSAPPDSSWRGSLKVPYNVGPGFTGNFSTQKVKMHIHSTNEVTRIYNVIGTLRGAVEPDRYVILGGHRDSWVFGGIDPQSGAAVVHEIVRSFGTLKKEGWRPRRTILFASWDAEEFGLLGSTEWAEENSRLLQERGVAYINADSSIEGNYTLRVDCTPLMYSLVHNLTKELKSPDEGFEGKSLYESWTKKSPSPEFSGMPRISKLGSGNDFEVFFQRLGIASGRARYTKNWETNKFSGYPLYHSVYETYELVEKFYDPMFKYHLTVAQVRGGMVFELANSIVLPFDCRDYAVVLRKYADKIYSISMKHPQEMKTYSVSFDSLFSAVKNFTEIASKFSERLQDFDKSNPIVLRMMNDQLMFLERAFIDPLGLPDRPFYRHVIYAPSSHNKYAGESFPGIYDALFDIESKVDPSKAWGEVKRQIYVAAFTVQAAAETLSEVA
T2 sequence (Q04609 44-750 limits assumed): as above
T3 sequence (Q04609 whole entry): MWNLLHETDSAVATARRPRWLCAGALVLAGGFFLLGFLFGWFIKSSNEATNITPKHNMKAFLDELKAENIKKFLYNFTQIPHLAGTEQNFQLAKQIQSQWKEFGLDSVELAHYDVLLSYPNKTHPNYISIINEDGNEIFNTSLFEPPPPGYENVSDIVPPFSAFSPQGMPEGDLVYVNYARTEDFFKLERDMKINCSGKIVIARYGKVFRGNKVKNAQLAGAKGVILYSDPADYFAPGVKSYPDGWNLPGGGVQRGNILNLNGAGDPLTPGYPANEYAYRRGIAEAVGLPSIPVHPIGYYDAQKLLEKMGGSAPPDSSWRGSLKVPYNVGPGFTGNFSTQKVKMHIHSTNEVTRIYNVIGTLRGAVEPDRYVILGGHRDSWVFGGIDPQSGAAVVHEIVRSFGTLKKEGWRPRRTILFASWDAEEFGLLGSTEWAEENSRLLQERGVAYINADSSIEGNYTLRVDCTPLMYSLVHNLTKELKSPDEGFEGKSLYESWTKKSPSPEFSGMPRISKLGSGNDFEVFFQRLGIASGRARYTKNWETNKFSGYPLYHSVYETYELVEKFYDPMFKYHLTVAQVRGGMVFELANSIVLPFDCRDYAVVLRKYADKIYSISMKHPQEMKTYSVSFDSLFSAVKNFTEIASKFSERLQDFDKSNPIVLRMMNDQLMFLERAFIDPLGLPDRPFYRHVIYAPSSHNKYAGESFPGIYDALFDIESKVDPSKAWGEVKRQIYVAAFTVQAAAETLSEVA

CC(C)C[C@H](NC(=O)[C@@H](NC(=O)[C@H](C)NC(=O)[C@H](Cc1c[nH]c2ccccc12)NC(=O)[C@H](Cc1c[nH]cn1)NC(=O)[C@H](Cc1c[nH]cn1)NC(=O)[C@H](C)NC(=O)[C@@H](NC(=O)[C@H](CC(=O)O)NC(=O)[C@@H]1CCCN1C(=O)[C@H](CCC(N)=O)NC(=O)[C@@H](N)Cc1c[nH]c2ccccc12)[C@@H](C)O)[C@@H](C)O)C(=O)NCCCC[C@H](NC(=O)[C@H](CC(C)C)NC(=O)[C@@H](NC(=O)[C@H](C)NC(=O)[C@H](Cc1c[nH]c2ccccc12)NC(=O)[C@H](Cc1c[nH]cn1)NC(=O)[C@H](Cc1c[nH]cn1)NC(=O)[C@H](C)NC(=O)[C@@H](NC(=O)[C@H](CC(=O)O)NC(=O)[C@@H]1CCCN1C(=O)[C@H](CCC(N)=O)NC(=O)[C@@H](N)Cc1c[nH]c2ccccc12)[C@@H](C)O)[C@@H](C)O)C(=O)N[C@@H](CCCCNC(=O)CCCC[C@@H]1SC[C@@H]2NC(=O)N[C@@H]21)C(=O)O (I: H-WQPDTAHHWATLKK(Biotin)-OH / II: H-WQPDTAHHWATL; amide I:13-II:C; N-terminus assumed)
PSMA inhibition of dimer relative to monomer (His-PSMA [1]): ~10 fold

CC(=O)N[C@@H](CC(=O)O)C(=O)N[C@@H](CCC(=O)O)C(=O)O [^3H NAAG, N-acetyl-aspartyl-3H glutamate] (Ac-Asp-Glu-OH)
Km (His-PSMA [2]): 0.43 µM | kcat for PSMA (His-PSMA [2]): 0.6 s⁻¹

FITC-labeled monomeric WQPDTAHHWATL peptide: fluorescently labeled peptide made by coupling FITC to the C-terminus of the monomeric peptide (WQPDTAHHWATL-{FITC′})
cell binding above background autofluorescence ([3]; FITC-labeled peptide at 1, 5, 10, 50 μM): could not be observed at any of the tested concentrations | peptide concentration at which cell binding could be visualized ([3]; FITC-labeled peptide tested at 1, 5, 10, 50 μM, 1% fetal bovine serum media, 1 hr): > 50 µM

QMARIPKRLARHK-biotin [reference compound]
binding to immobilized PSMA compared to BSA (PSMA): no specific binding to immobilized PSMA compared to BSA

WQPDTAHHWATL-OH
inhibition of PSMA in LNCaP cell lysates [4]: inhibited

WQPDTAHHWATLK(Biotin)
binding to immobilized PSMA compared to BSA (PSMA): significantly higher binding to PSMA at peptide concentrations of 50 μM and 500 μM
